Results on 18 compounds are retold here after ChEMBL document CHEMBL4118163, “Identification and preliminary structure-activity relationship studies of novel pyridyl sulfonamides as potential Chagas disease therapeutic agents” (Bioorg Med Chem Lett, 2018).

For data set [1], the system named is Trypanosoma cruzi. The data set can be described thus: Antitrypanosomal activity against Trypanosoma cruzi Tulahuen amastigotes infected in mouse L929 cells assessed as reduction in infection level at 10 uM after 96 hrs by beta galactosidase reporter assay relative to control. Format: functional. The conditions noted are these: L929, 96 h. A general note: A reporter such as luciferase makes a cellular process visible.

Data set [2] in a line: Cytotoxicity against mouse L929 cells assessed as reduction in cell viability after 96 hrs by alamar blue assay. The conditions noted are these: read-out: LC50. Format: cell-based. A general note: Resazurin is reduced to fluorescent resorufin, in cell work by metabolically active cells.
The nature of data set [3]: Selectivity index, ratio of LC50 for mouse L929 cells to EC50 for Trypanosoma cruzi Tulahuen amastigotes. The format is toxicity. Particulars: read-out: Selectivity Index.
Data set [4] deals with Trypanosoma cruzi. Kind of data set: Antitrypanosomal activity against bloodstream trypomastigote stage of Trypanosoma cruzi Y infected in Swiss Webster mouse cardiac cells after 24 hrs. Format: functional, organism-based.
Data set [5] relates to Trypanosoma cruzi. The data set can be described thus: Antitrypanosomal activity against Trypanosoma cruzi Tulahuen amastigotes infected in mouse L929 cells after 96 hrs by beta galactosidase reporter assay. The conditions noted are these: L929, 96 h. The format is functional, organism-based.
Data set [6] in a line: Cytotoxicity against Swiss Webster mouse cardiomyocyte assessed as reduction in cell viability after 24 hrs by PrestoBlue assay. More on the design: species or system Cardiac Muscle Cell. Particulars: cardiomyocytes, read-out: LC50.
Data set [7] deals with Trypanosoma cruzi. The data set can be described thus: Antitrypanosomal activity against Trypanosoma cruzi Silvio X10/7 intracellular forms. Format: functional, organism-based.
The subject of the next data set is Vero. Kind of data set: Cytotoxic activity against African green monkey Vero cells. The format is cell-based. Particulars: Chlorocebus sabaeus.
Data set [8] in a line: Selectivity index, ratio of LC50 for Swiss Webster mouse cardiac cells to EC50 for bloodstream trypomastigote stage of Trypanosoma cruzi Y. The format is toxicity. Particulars: read-out: Selectivity Index.

Broadly, the inhibition is the share of the control response that was lost under treatment. Broadly, the pEC50 is −log10 of the EC50, conventionally taken in molar units.

pEC50: −log10 of the molar value.

As for `CCOc1ccc(S(=O)(=O)NCc2cccnc2)c2ccccc12`, the inhibition at 10 µM with Trypanosoma cruzi [1] was determined as 1.1%. Moreover, in data set [2], the CC50 at 96 h was more than 200 µM.
Consider `CCOc1ccc(S(=O)(=O)Nc2cccnc2)cc1C(C)(C)C`, for which, in the data set with Trypanosoma cruzi [1], the inhibition at 10 µM stood at 1.9%. The CC50 at 96 h in [2] was more than 200 µM.
Consider `COc1cc(C)c(S(=O)(=O)Nc2cccnc2)cc1C(C)C`, for which the inhibition at 10 µM with Trypanosoma cruzi [1] turned out to be 26.7%. Besides, the CC50 at 96 h in data set [2] was more than 200 µM.
`CCOc1ccc(S(=O)(=O)Nc2ccncc2)c(C)c1C`: the inhibition at 10 µM in the data set with Trypanosoma cruzi [1] was found to be 3.6%. Further, the CC50 at 96 h in data set [2] was more than 200 µM.
As for `CCOc1ccc(S(=O)(=O)Nc2cccnc2)c(C)c1C`, in the data set with Trypanosoma cruzi [1], the inhibition at 10 µM stood at 62%. For the same compound, the selectivity ratio in [3] is more than 13.5. Moreover, the figures for the pEC50 in the data set with Trypanosoma cruzi [4] and in the data set on Trypanosoma cruzi [5] were less than 4.30 and 4.83, respectively. Besides, the CC50 at 96 h in data set [2] is more than 200 µM. Besides, the CC50 at 24 h in data set [6] is more than 100 µM.
Regarding `CCOc1ccc(S(=O)(=O)Nc2cccnc2)c2ccccc12`, the values for the pEC50 with Trypanosoma cruzi [7], in the data set on Trypanosoma cruzi [5] and with Vero were 5.26, less than 4.60 and 4.30, respectively. Also, the CC50 at 96 h in data set [2] is more than 400 µM.
Regarding `CCOc1ccc(S(=O)(=O)Nc2cccnc2)cc1CC`, the inhibition at 10 µM in the data set with Trypanosoma cruzi [1] was 3%. For the same compound, in data set [2], the CC50 at 96 h is more than 200 µM.
Consider `CCCOc1cc(C)c(S(=O)(=O)Nc2cccnc2)cc1C`, for which the inhibition at 10 µM in the data set with Trypanosoma cruzi [1] was found to be 78%. The selectivity ratio in data set [3] was more than 15. Besides, the pEC50 in the data set on Trypanosoma cruzi [4] was less than 4.30; in the data set on Trypanosoma cruzi [5], 4.88. Besides, the CC50 at 96 h in data set [2] was more than 200 µM. The CC50 at 24 h in data set [6] was more than 100 µM.
`CCOc1ccc(S(=O)(=O)NCc2ccncc2)c(C)c1C`: in the data set on Trypanosoma cruzi [1], the inhibition at 10 µM amounted to 65%. Further, the selectivity ratio in data set [3] is more than 23. The pEC50 with Trypanosoma cruzi [4] is less than 4.30; in the data set on Trypanosoma cruzi [5], 5.06. In addition, in data set [2], the CC50 at 96 h is more than 200 µM. Further, in data set [6], the CC50 at 24 h was more than 100 µM.
On to `COc1ccc2cc(S(=O)(=O)Nc3cccnc3)ccc2c1`, for which the inhibition at 10 µM in the data set on Trypanosoma cruzi [1] turned out to be 41.1%. The selectivity ratio in data set [3] was more than 36. For the same compound, the pEC50 in the data set on Trypanosoma cruzi [4] is less than 4.30; in the data set with Trypanosoma cruzi [5] it was 5.26. The CC50 at 96 h in data set [2] is more than 200 µM. In addition, the CC50 at 24 h in [6] is more than 100 µM.
For `CCOc1ccc(S(=O)(=O)NCc2ccccn2)c(C)c1C`, the inhibition at 10 µM with Trypanosoma cruzi [1] turned out to be 3.6%. In addition, in data set [2], the CC50 at 96 h was more than 200 µM.
In the same order, the values of `COc1ccc(S(=O)(=O)NCc2cccnc2)c2ccccc12` are 28% and more than 200 µM.
As to `COc1ccc(S(=O)(=O)NCc2ccccn2)c(C)c1C`, the inhibition at 10 µM in the data set on Trypanosoma cruzi [1] amounted to 7.2%. Also, the CC50 at 96 h in data set [2] is more than 200 µM.
For `O=C(Cn1ccnc1[N+](=O)[O-])NCc1ccccc1` [BENZNIDAZOLE], the inhibition at 10 µM in the data set on Trypanosoma cruzi [1] came to 89.3%. Further, the selectivity ratio in data set [8] is more than 89; in data set [3], more than 114. The pEC50 in the data set on Trypanosoma cruzi [4] is 4.95; with Trypanosoma cruzi [5], 5.45. The CC50 at 96 h in data set [2] is more than 400 µM. The CC50 at 24 h in [6] was more than 1000 µM.
With `COc1c(C)cc(S(=O)(=O)Nc2cccnc2)c(C)c1C`, in the data set with Trypanosoma cruzi [1], the inhibition at 10 µM came to 2.1%. Besides, in data set [2], the CC50 at 96 h was more than 200 µM.
As for `CCOc1ccc(S(=O)(=O)Nc2ccncc2)c2ccccc12`, in the data set with Trypanosoma cruzi [1], the inhibition at 10 µM turned out to be 0.1%. Also, the CC50 at 96 h in [2] was more than 200 µM.
As for `COc1ccc(S(=O)(=O)Nc2ccc(Cc3ccncc3)cc2)c2ccccc12`, in the data set with Trypanosoma cruzi [1], the inhibition at 10 µM was 0%. Moreover, the CC50 at 96 h in data set [2] is more than 200 µM.
For `CC1CS(=O)(=O)CCN1/N=C/c1ccc([N+](=O)[O-])o1` (centres undefined) [NIFURTIMOX], the pEC50 is 6.05 with Trypanosoma cruzi [7] and 4.30 with Vero.
